The source of these data is patent US12466854B2, “Peptide useful for the transport of molecules through cell barriers” (UNIVERSITÉ GRENOBLE ALPES, priority 2022, dated 2025).

This assay deals with mice. Description: body temperature of mice after intravenous injection of peptides (hypothermia as reporter for crossing the BBB). It counts as in vivo. To be noted: 2.5 mmol/kg intravenously; for hypothermia (variation in body temperature): monitored over 90 minutes.

Method: Body temperature was monitored using Anipill® capsules previously implanted intraperitoneally.
The monitoring was carried out over 90 minutes.

Take “TAT-NT: reference cell penetration peptide TAT fused to neurotensin, GRKKRRQRRRPQRRPYIL (SEQ ID NO: 8), positive control [reference compound]”: the “time following injection at which hypothermia was observed” value stood at 30 min and the “hypothermia (variation in body temperature)” value was “approximately 1 degree Celsius”.

For “TB peptide: cell penetrating peptide of amino acid sequence RQRIWFQNRRRSRKIKK (SEQ ID NO: 1)”, the “hypothermia (variation in body temperature)” value is on record as “no signs of hypothermia”.

In the case of “TB-NT: TB peptide fused to neurotensin, sequence RQRIWFQNRRRSRKIKKRRPYIL (SEQ ID NO: 7)”, the “time following injection at which hypothermia was observed” value worked out at 35 min and the “hypothermia (variation in body temperature)” value is “approximately 3 degree Celsius”.
